Results as given in publication PMC7555312, “Functional Characterization of Temporin-SHe, a New Broad-Spectrum Antibacterial and Leishmanicidal Temporin-SH Paralog from the Sahara Frog (Pelophylax saharicus)” (International Journal of Molecular Sciences, 2020).
Where no end group is shown, it is not given here.

Experiments:
E. coli = test system: E. coli; design: method as in PMID 14499272; conditions: cited from earlier work
S. aureus = test system: S. aureus; design: method as in 3 sources, one per row (each row's own in cited_ref): ref 46 = [46]; PMID 14499272; doi:10.1016/S0196-9781(03)00193-1; 46. Ali M.F. Knoop F.C. Vaudry H. Conlon J.M. Characterization of novel antimicrobial peptides from the skins of frogs of the Rana esculenta complex Peptides 2003 24 955 961 10.1016/S0196-9781(03)0019 ||| ref 48 = [48]; PMID 28402481; doi:10.1093/abbs/gmx032; 48. Wang X. Ren S. Guo C. Zhang W. Zhang X. Zhang B. Li S. Ren J. Hu Y. Wang H. Identification and functional analyses of novel antioxidant peptides and antimicrobial peptides from skin secretions of ||| ref 49 = [49]; PMID 25066917; doi:10.1016/j.biochi.2014.07.013; 49. Guo C. Hu Y. Li J. Liu Y. Li S. Yan K. Wang X. Liu J. Wang H. Identification of multiple peptides with antioxidant and antimicrobial activities from skin and its secretions of Hylarana taipehensis; conditions: cited from earlier work
L. mexicana amastigotes = conditions: cited from earlier work
Description: Temporin-SHe represents an additional temporin with antiparasitic properties. This peptide was able to kill promastigote forms of the human parasite Leishmania, responsible for visceral (L. infantum), cutaneous (L. major) and muco-cutaneous (L. braziliensis) leishmaniasis. […] Until today, only six temporins (Ta, Tb, SHa, SHd, Tl and Tf) have been described as antiparasitic peptides and very few AMPs of other families are active against parasites (The Antimicrobial Peptide ...

L. ivanovii (Li4pVS2) = conditions: liquid growth inhibition (CLSI), 10^6 CFU/mL in brain heart infusion (BHI) medium, 37 °C, 18–20 h, OD 630 nm; mean of three independent experiments in triplicate
Experimental: Antibacterial activity of temporin-SHe was evaluated against Gram-positive bacteria including S. aureus strains (ATCC 25923, ST1065), antibiotic-resistant S. aureus strains (ATCC 43300, ATCC BAA-44), E. faecalis (ATCC 29212), B. megaterium, and L. ivanovii (Li4pVS2), and Gram-negative bacteria including E. coli strains (ATCC 25922, ATCC 35218, ML-35p), S. enterica (serotype Enteritidis), P. aeruginosa (ATCC 27853), A. baumannii (ATCC 19606) and K. pneumoniae (ATCC 13883). Antifungal activity was evaluated against C. albicans (ATCC 90028), C. parapsilosis (ATCC 22019) and S. cerevisiae. ATCC strains were purchased from American-Type Culture Collection (ATCC, Virginia, VA, USA). Antiparasitic activity was determined against promastigotes of several species of Leishmania responsible for visceral, cutaneous and mucocutaneous leishmaniases: L. infantum (strain MHOM/MA/67/ITMAP-263), L. major (strain MHOM/SU/73/5-ASKH), and L. braziliensis (strain MHOM/BR/75/M2904), respectively. Cytotoxicity was assessed against human red blood cells and THP-1 monocytes. Peripheral blood was obtained from healthy adult donors (Établissement Français du Sang, Paris, France). All donors signed informed consent allowing the use of their blood for research purposes.
Antimicrobial activity was assessed with a liquid growth inhibition assay performed according to a previously described protocol using the Clinical and Laboratory Standards Institute (CLSI) guidelines. Briefly, in 96-well microtitration plates, mid-log-phase bacteria diluted to 10^6 CFU/mL in Mueller–Hinton (MH) broth were added to different concentrations of synthetic temporin-SHe (1–200 µM, final concentrations) and incubated at 37 °C for 18–20 h, under shaking (150 rpm). For E. faecalis, L. ivanovii and yeasts/fungi, 10^6 CFU/mL suspensions were prepared in LB broth, brain heart infusion (BHI) medium and Yeast Peptone Dextrose (YPD) medium, respectively, and incubation was performed at 30 °C for yeasts/fungi. […] MIC values represent the average of three independent experiments, each performed in triplicate with negative (no peptide) and positive (formaldehyde 0.7%) controls.

human THP-1 monocytes = conditions: taken from literature; cited from earlier work
Nocardia asteroides = test system: Nocardia asteroides; design: method as in 2 sources, ref 48 = [48]; PMID 28402481; doi:10.1093/abbs/gmx032; 48. Wang X. Ren S. Guo C. Zhang W. Zhang X. Zhang B. Li S. Ren J. Hu Y. Wang H. Identification and functional analyses of novel antioxidant peptides and antimicrobial peptides from skin secretions of ||| ref 49 = [49]; PMID 25066917; doi:10.1016/j.biochi.2014.07.013; 49. Guo C. Hu Y. Li J. Liu Y. Li S. Yan K. Wang X. Liu J. Wang H. Identification of multiple peptides with antioxidant and antimicrobial activities from skin and its secretions of Hylarana taipehensis; conditions: cited from earlier work
E. faecalis = test system: E. faecalis; design: method as in 2 sources, ref 48 = [48]; PMID 28402481; doi:10.1093/abbs/gmx032; 48. Wang X. Ren S. Guo C. Zhang W. Zhang X. Zhang B. Li S. Ren J. Hu Y. Wang H. Identification and functional analyses of novel antioxidant peptides and antimicrobial peptides from skin secretions of ||| ref 49 = [49]; PMID 25066917; doi:10.1016/j.biochi.2014.07.013; 49. Guo C. Hu Y. Li J. Liu Y. Li S. Yan K. Wang X. Liu J. Wang H. Identification of multiple peptides with antioxidant and antimicrobial activities from skin and its secretions of Hylarana taipehensis; conditions: cited from earlier work
[1] = test system: Candida species (C. albicans and C. glabrata); design: method as in PMID 28402481; conditions: cited from earlier work
[2] = test system: Gram-negative bacteria (E. coli, P. aeruginosa, and K. pneumoniae); design: method as in PMID 28402481; conditions: cited from earlier work

Which MIC (E. coli) does the source give for “FLPVIAGLLSKLF-NH2 [Temporin-1Ec, temporin isolated from Pelophylax lessonae/ridibundus]” here?
Its MIC is > 100 µM.

And the MIC (S. aureus)?
The MIC was 8 µM.

For “FLSGIVGMLGKLF-NH2 [Temporin-SHa, 13-residue temporin-SH from Pelophylax saharicus]”, which “less efficiency against L. mexicana amastigotes (compared with promastigotes)” value (L. mexicana amastigotes) is on record?
The value was “approximately 10 fold”.

For “FLPAALAGIGGILGKLF-NH2 [Temporin-SHd, reference compound]”, which MIC (L. ivanovii (Li4pVS2)) is on record?
Its MIC is 10 µM.

What about the “LC50 (lethal concentration 50)” value (human THP-1 monocytes) of the same substance?
The value was 66 µM.

Which results are given for “FLPLLFGALSTLLPKIF-NH2 [Temporin-TP3, temporin isolated from skin secretions of Hylarana taipehensis]”?
MIC (Nocardia asteroides): 12.5 µM; MIC (S. aureus): 25 µM; MIC (E. faecalis): 50 µM

For “FLPFLAGLFGKIF-NH2 [Temporin-HB2, temporin isolated from the Hubei Frog Pelophylax hubeiensis]”, which “activity against Candida species” value [1] is on record?
Its value is “No activity”.

And the MIC (Nocardia asteroides)?
The MIC was 75 µM.

What about the MIC (S. aureus) of the same substance?
The MIC was 150 µM.

And the “activity against Gram-negative bacteria” value [2]?
Its value is “No activity”.

And the MIC (E. faecalis)?
Its MIC is 19 µM.
